{"source": "patent US9429582B2", "about": "“Tyrosine-phosphorylated WBP2, a novel cancer target and biomarker” (National University of Singapore, priority 2010, dated 2016)", "key": {"TCF/β-catenin signaling": {"tested_on": "TCF/β-catenin signaling", "experiment": "TCF reporter activity / β-catenin recruitment in Y192-231E-expressing MCF7", "type": "cell-based, human", "details": "preliminary study, data not shown", "method": "The Dual-Luciferase TM reporter assay system (Promega) was used for sequential measurement of Firefly and Renilla luciferase activities according to manufacturer's instructions. Quantification of luciferase activities were carried out using a luminometer (Sirius).\nThe Dual-Luciferase TM reporter assay system (Promega) was used for sequential measurement of Firefly and Renilla luciferase activities according to manufacturer's instructions. Quantification of luciferase activities were carried out using a luminometer (Sirius, Berthold-DS Inc, Germany). Briefly, transfected cells in 24-well plate were rinsed once with ice-cold PBS and lysed in 1× Passive Lysis Buffer (PLB) for 15 min at RT. The crude lysate was first incubated with Luciferase Assay Substrate (LAR II) to measure the firefly luciferase activity, followed by incubation with Stop and Glo Substrate to measure the Renilla luciferase activity.\nNext, we examined the relative contributions of ERα and Wnt pathway to WBP2-mediated cellular proliferation. […] Even at higher doses of up to 2000 nM, retardation of proliferation by Tamoxifen of Y192-231E-expressing cells remains unremarkable. FH535 is a recently identified small-molecule inhibitor of TCF/β-catenin signaling (31). […] No synergistic effect could be observed when Tamoxifen and FH535 were administered in combination."}, "[1]": {"tested_on": "WBP2-Y192-231E mutant-expressing MCF7", "experiment": "Cell proliferation (MTS / cell numbers) of WBP2-Y192-231E mutant-expressing MCF7", "type": "cell-based, human", "method": "A: Whole cell lysates from vector, WBP2-WT, WBP2-Y192-231E mutant and WBP2-Y192-231F mutant expressing MCF7 or Y192-231E mutant expressing MCF7 with WBP2 knockdown were used for IB analysis with antibodies indicated. B: Vector, WBP2-WT, WBP2-Y192-231E mutant or WBP2-Y192-231F mutant-expressing MCF7 were co-transfected with TOPFlash (top panel) or ERE-Luciferase (bottom panel) reporter construct. For cells co-transfected ERE-luciferase, they were either left alone or stimulated with 50 ng/ml Wnt3a ligand for 16 hrs. TCF/ERα luciferase activities in various conditions were then assayed. **P<0.01, ***P<0.001, Student's t-test (2-tailed). C: Vector or WBP2-Y192-231E mutant-expressing MCF7 were treated with indicated concentrations of Tamoxifen(Tam) and/or FH535. Cell numbers were measured. D: Whole cell lysates from WBP2-Y192-231E mutant-expressing MCF7 treated with 2 μM Tam and/or 15 μM FH5353 were harvested at day 2-4 post-treatment and used for IB analysis with antibodies indicated.\nEffect of knockdown of E2F1 and E2F3 on MCF7 cells overexpressing WBP2-Y192-231E. A. MCF7 cells expressing WBP2-Y192-231E were transfected with indicated siRNAs and knockdown efficiency was confirmed using western blotting. B. Cells were co-transfected with indicated siRNAs and E2F reporter plasmid and harvested for luciferase assay after 48 hours. Luciferase readings were normalized against constitutive TK promoter renilla luciferase readings. C. Cells were transfected with indicated siRNAs and BrdU incorporation assay was performed. Percentages of BrdU positive cells relative to control siRNA treated cells were plotted as bar charts. D. Cells were transfected with indicated siRNAs. MTS assay was performed on day 3. Percentages of cell proliferation relative to control siRNA treated cells were plotted as bar charts.\nWhole cell lysates from vector, WBP2-WT, WBP2-Y192-231E mutant and WBP2-Y192-231F mutant expressing MCF7 (A) or Y192-231E mutant expressing MCF7 with WBP2 knockdown (B) were used for IB analysis with antibodies indicated. Their expression levels were quantified in three independent experiments and the averages were presented relative to actin. Representative blots (order in lanes from left to right: vector, WBP2, Y192-231E, Y192F) were presented as insets to the bar graphs. **P<0.01, ***P<0.001, Student's t-test (2-tailed) relative to vector. Vector, WBP2-WT, WBP2-Y192-231E mutant or WBP2-Y192-231F mutant-expressing MCF7 were cotransfected with TOPFlash(C) or ERE-Luciferase(D) reporter construct. For cells co-transfected ERE luciferase, they were either left alone or stimulated with 50 ng/ml Wnt3a ligand for 16 hrs. TCF(C)/ER[…](D) luciferase activities in various conditions were then assayed and analyzed in relative to untreated vector control. **P<0.01, ***P<0.001, Student's t-test (2-tailed). E: Vector or WBP2-Y192-231E mutant-expressing MCF7 were treated with indicated concentrations of 2 µM tamoxifen (Tam) and/or 15 µM FH535 for 4 days. Cell numbers were measured daily and compared in relative to vehicle treated vector-expressing cells on Day 0. F: Vector or WBP2-Y192-231E mutant-expressing MCF7 were treated with indicated concentrations (0-50 µM) of FH535 for 2 days. Cell numbers were measured and compared in relative to vehicle-treated cells. Their […] were analyzed statistically with SPSS 13.0. G: Whole cell lysates from WBP2-Y192-231E mutant-expressing MCF7 treated with 2 μM Tam and/or 15 μM FH5353 were harvested at day 2-4 post-treatment and used for IB analysis with antibodies indicated. H: Vector or WBP2-Y192-231E mutant-expressing MCF7 were treated with indicated concentrations of 100 nM fulvestrant and/or 15 µM FH535 for 4 days. Cell numbers were measured on day 2 and day 4 and compared in relative to vehicle-treated control at each day (Top Panel). These treated cells were harvested for IB analysis with antibodies indicated (Bottom Panel). […]"}}, "data": [{"smiles": "Cc1cc([N+](=O)[O-])ccc1NS(=O)(=O)c1cc(Cl)ccc1Cl", "note": "[FH535]", "values": [{"measurement": "TCF activity reduced", "setting": "TCF/β-catenin signaling; 24-hr post-treatment with 15 μM FH535 in Y192-231E-expressing MCF7", "result": 50, "unit": "%"}, {"measurement": "recruitment of β-catenin", "setting": "TCF/β-catenin signaling", "result": "inhibits"}, {"measurement": "blocking of phospho-WBP2-mediated cancer cell growth compared with tamoxifen and fulvestrant", "setting": "[1]", "result": "more pronouncedly"}, {"measurement": "sensitivity of Y192-231E-expressing MCF7 to FH535-mediated growth inhibition compared with vector-expressing MCF7", "setting": "[1]; 0-50 μM FH535 for 2 days", "result": "more sensitive"}, {"measurement": "inhibition of growth / reduction of proliferation", "setting": "[1]; MCF7 cells expressing Y192-231E mutant, day 4, 100 nM fulvestrant or 15 μM FH535", "result": "~65", "unit": "%"}, {"measurement": "growth inhibition, dose dependence", "setting": "[1]; Y192-231E stable transfectant, 0-50 μM FH535 for 2 days", "result": "dose dependent growth inhibition"}, {"measurement": "growth rate", "setting": "[1]; Y192-231E-expressing MCF7, FH535 alone (15 μM), to close to vector-expressing MCF7 at day 3", "result": "significantly reduced"}]}]}
